Earlier results on one molecule are cited in patent publication US20260232611A1, “USE OF (S)-3-AMINO-4-(DIFLUOROMETHYLENYL) CYCLOPENT-1-ENE-1-CARBOXYLIC ACID IN THE TREATMENT OF RHEUMATOID ARTHRITIS” (Ovid Therapeutics Inc., priority 2023, published 2026).

The test system of series [1] is alanine aminotransferase (Ala-AT). Particulars: unlike vigabatrin.
Series [2] deals with aspartate aminotransferase (Asp-AT). The settings on record: unlike vigabatrin.

Turning to `N[C@H]1C[C@@H](C(=O)O)CC1=C(F)F` [CPP-115, (1S,3S)-3-amino+difluoromethylenyl-1-cyclopentanoic acid], the “inactivation or inhibition of off-target enzyme” value in series [1] and in series [2] was “not to inactivate or inhibit” throughout.
